These results are taken from patent US7655395B2, “Isolation and use of ryanodine receptors” (E.I. du Pont de Nemours and Company, priority 2002, dated 2010).

Assay [1] relates to native cockroach ryanodine receptors (in embryonic neuronal cells). The assay is described as follows: Calcium release assay, calcium imaging of embryonic cockroach neuronal cells (Fluo-4). The assay is classed as cell-based, Periplaneta americana. The source says: Embryonic neuronal cultures of the American cockroach Periplaneta americana were established, with minor modifications, following the method of Beadle and Lees (1988) (in Cell Culture Approaches to Invertebrate Neuroscience, Academic Press, New York, pp 123-127). Briefly, 26-27-day old oothecae were collected, surface-sterilized and cut open along a line one-third of the distance below the dorsal midline. The heads were removed and placed in Schneider's Drosophila medium (Invitrogen Life Technologies™, Carlsbad, Calif.). Using fine forceps 40 brains were individually removed and placed in a small glass vial containing 700 μl of ‘5+4’ medium (‘5+4’ medium contained 5 parts Schneider's Drosophila medium plus 4 parts roach Basal Medium Eagle, with Earle's salts (BME, Sigma™, St. Louis, Mo.). Roach BME (with Earle's salts) contained 5 parts Hepes (1 M), 1 part penicillin/streptomycin and 44 parts BME (with Earle's salts). ‘5+4’ medium was made fresh and sterile filtered (0.2 μm filter) just prior to use). The brains were dissociated by sequential trituration as follows: 1) brains were passed through a standard Pasteur pipette 10 times; 2) the resulting tissue suspension was passed an additional 5 times through a Pasteur pipet with tip flamed to about half of its original diameter; 3) a final 5 passes were performed using a Pasteur pipet with tip flamed to slightly less than half of its original diameter. A repeat pipettor was used to dispense a 5 μl volume of the resulting suspension into the center of each well of a 96-well, glass-bottom plate previously coated with poly-L-lysine (0.2 mg/ml solution). Cells attached to the bottom of the wells during a 50 min incubation at 27-29° C. 150 ul of a 1:1 mixture of Leibovitz's L-15 medium and Yunker's modified Grace's medium was added, and plates were maintained in a humid incubator at 27-29° C. until use. After cells were allowed to attach wells were filled with a 1:1 mixture of Leibovitz's L-15 medium and Yunker's modified Grace's medium (Leibovitz's L-15 and Grace's medium were obtained from Invitrogen Life Technologies™, Carlsbad, Calif. and Yunker's modified Grace's medium was made with Grace's medium modified by addition of 5 mg L-methionine, 10 mg L-alanine, 182 mg MgCl2.6H20, 1 g Albumin Fraction V, 7 ml Fetal bovine serum, 10 ml Chick embryo extract, 2 ml Penicillin/Streptomycin, and 2 mg 20-hydroxyecdysone (prepared in ethanol prior to addition) to a final volume of 100 ml and sterile filtered (0.2 μm filter)). Cells were maintained in a high humidity incubator at 29° C. until testing.
The calcium imaging and acquisition protocols using roach neuronal cells is as follows:
Cells were rinsed in standard physiological saline having the following composition (mM): NaCl 190; CaCl2 9; KCl 3.1; probenicid 1; Tris buffer 10; pH 7.2. Cells were then bathed in standard physiological saline containing the calcium sensitive fluoroprobe Fluo-4 AM (2 μM) and Pluronic F127 (0.002%) for 45 min. Cells were then rinsed in standard physiological saline for at least 15 min prior to testing. Within the hour prior to testing, standard physiological saline was replaced with standard physiological saline containing the organic cation channel blocker pimozide (10 μM), to inhibit influx of external calcium through voltage-gated calcium channels. The 96-well plate was placed on a Prior™ motorized stage mounted onto a Nikon Diaphot microscope and imaged using a 20× Fluor objective (NA 0.75). Individual wells from the 96-well plate were sequentially excited with light at 495 nm, and the emitted fluorescence at 530 nm was detected using a Hamamatsu ORCA ER digital camera with 2 pixel binning (image size 672×512 pixels).
Acquisition control, image processing and image analysis were conducted using Universal Imaging Corporation's MetaMorph™ imaging software (Universal Imaging, West Chester, Pa.). A series of 3 “control” images were acquired for each well. […]

The target of assay [2] is native cockroach ryanodine receptors (roach femoral muscle membranes) (Periplaneta americana, UniProt A0ABQ8T696). The assay is described as follows: Radioligand displacement ([3H]-GN analog Cpd 1) on roach femoral muscle membranes. Format: binding. As for the experimental part: Binding to Roach Femoral Muscle Membranes:
Assays were carried out in triplicate.
Background: In a radioligand displacement assay an active substance lowers the binding of a labelled ligand.

Chain of native cockroach ryanodine receptors (roach femoral muscle membranes) (A0ABQ8T696 entry or part of it): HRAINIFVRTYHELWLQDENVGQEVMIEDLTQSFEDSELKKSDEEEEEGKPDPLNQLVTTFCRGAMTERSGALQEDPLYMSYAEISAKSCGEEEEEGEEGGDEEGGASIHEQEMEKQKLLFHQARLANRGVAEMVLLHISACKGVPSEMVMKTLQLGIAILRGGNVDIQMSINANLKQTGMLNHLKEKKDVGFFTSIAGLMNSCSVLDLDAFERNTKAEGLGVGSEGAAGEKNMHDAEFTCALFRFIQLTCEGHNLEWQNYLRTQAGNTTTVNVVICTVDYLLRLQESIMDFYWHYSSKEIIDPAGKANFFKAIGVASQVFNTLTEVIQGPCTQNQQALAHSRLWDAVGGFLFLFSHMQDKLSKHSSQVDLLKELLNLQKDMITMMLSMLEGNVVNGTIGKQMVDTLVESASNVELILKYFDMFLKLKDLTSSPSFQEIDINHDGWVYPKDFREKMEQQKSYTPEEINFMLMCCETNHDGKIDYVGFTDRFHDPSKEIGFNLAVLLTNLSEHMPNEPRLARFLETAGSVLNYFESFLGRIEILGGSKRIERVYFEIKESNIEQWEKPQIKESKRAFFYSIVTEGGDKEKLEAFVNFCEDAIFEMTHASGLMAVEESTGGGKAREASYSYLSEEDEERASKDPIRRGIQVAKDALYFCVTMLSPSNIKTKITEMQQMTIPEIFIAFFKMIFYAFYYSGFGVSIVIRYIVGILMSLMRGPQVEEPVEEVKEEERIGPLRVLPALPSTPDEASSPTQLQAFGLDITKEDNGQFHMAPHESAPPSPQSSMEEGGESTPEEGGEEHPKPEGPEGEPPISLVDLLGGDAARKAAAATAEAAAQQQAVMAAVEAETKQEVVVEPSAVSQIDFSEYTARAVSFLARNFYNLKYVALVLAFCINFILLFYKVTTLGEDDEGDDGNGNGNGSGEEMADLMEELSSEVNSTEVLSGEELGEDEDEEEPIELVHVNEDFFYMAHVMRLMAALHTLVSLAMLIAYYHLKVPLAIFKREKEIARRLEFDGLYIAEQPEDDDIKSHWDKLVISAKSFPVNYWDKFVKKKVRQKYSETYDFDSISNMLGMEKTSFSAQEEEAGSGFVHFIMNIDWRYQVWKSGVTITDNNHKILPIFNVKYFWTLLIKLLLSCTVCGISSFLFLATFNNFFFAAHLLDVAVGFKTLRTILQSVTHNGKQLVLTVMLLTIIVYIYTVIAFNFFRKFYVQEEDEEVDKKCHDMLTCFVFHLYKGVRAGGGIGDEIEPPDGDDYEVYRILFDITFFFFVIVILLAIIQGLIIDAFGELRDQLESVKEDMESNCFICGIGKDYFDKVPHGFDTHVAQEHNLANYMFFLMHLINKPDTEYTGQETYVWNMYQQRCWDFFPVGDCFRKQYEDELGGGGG

Usually IC50 stands for the concentration at which inhibition is half-maximal. For `CNC(=O)c1cc(Cl)cc(C)c1NC(=O)c1cc(Br)nn1-c1ncccc1Cl` [Cpd 14], in assay [1], the “Calcium Release Threshold (nM) P. americana” value is listed as below 300 nM. In assay [2] (displacement of [3H]-Cpd 1, roach muscle membranes, 60 min at 32° C., read-out: Displacement IC50 (nM) P. americana), the IC50 is below 300 nM.
On to `Cn1c(=O)c2c(ncn2C)n(C)c1=O` [Caffeine, reference compound], for which, in assay [1] (Table 6, result in words), the “Calcium Release (P. americana)” value is listed as “Agonist”. For the same molecule, the “Radioligand Displacement (P. americana)” value in assay [2] (Table 6, result in words) was “Inactive”.
